Laboratory results reported in patent US10770169B2, “Method of providing a treatment to a subject based on a dynamic pathway map” (THE REGENTS OF THE UNIVERSITY OF CALIFORNIA, priority 2010, dated 2020).
Like-named read-outs stand apart in the source and are kept apart here.

Test system: panel of 55 breast cancer cell lines
Assay: Cell growth inhibition assay (Cell Titer Glo, 72 h, 9 doses; GI50, TGI, LC50)
Assay type: cell-based, human
Conditions: Homo sapiens, read-out: GI50 (converted)

Cc1ccc(C(=O)N(CCCN)[C@@H](c2nc3cc(Cl)ccc3c(=O)n2Cc2ccccc2)C(C)C)cc1 [Ispinesib]
GI50 (AU565, cell line AU565, censored GI50 values): 22.4 nM
GI50 (AU565, cell line AU565): 22.4 nM
GI50 (BT-20, cell line BT20, censored GI50 values): 17 nM
GI50 (BT-20, cell line BT20): 17 nM
GI50 (BT-474, cell line BT474, censored GI50 values): 51.3 nM
GI50 (BT-474, cell line BT474): 51.3 nM
GI50 (BT-483, cell line BT483, censored GI50 values): 0.049 nM
GI50 (BT-483, cell line BT483): 0.049 nM
GI50 (BT-549, cell line BT549, censored GI50 values): 46.8 nM
GI50 (BT-549, cell line BT549): 46.8 nM
GI50 (CAMA-1, cell line CAMA1, censored GI50 values): 31.6 nM
GI50 (CAMA-1, cell line CAMA1): 31.6 nM
GI50 (HCC38, cell line HCC38, censored GI50 values): 46.8 nM
GI50 (HCC38, cell line HCC38): 46.8 nM
GI50 (HCC70, cell line HCC70, censored GI50 values): 45.7 nM
GI50 (HCC70, cell line HCC70): 45.7 nM
GI50 (HCC202, cell line HCC202, censored GI50 values): 7.59 nM
GI50 (HCC202, cell line HCC202): 7.59 nM
GI50 (HCC1143, cell line HCC1143, censored GI50 values): 51.3 nM
GI50 (HCC1143, cell line HCC1143): 51.3 nM
GI50 (HCC1187, cell line HCC1187, censored GI50 values): 26.9 nM
GI50 (HCC1187, cell line HCC1187): 26.9 nM
GI50 (HCC1395, cell line HCC1395, censored GI50 values): 27.5 nM
GI50 (HCC1395, cell line HCC1395): 27.5 nM
GI50 (HCC1419, cell line HCC1419, censored GI50 values): 6760 nM
GI50 (HCC1419, cell line HCC1419): 6760 nM
GI50 (HCC1428, cell line HCC1428, censored GI50 values): 4470 nM
GI50 (HCC1428, cell line HCC1428): 4470 nM
GI50 (HCC1500, cell line HCC1500, censored GI50 values): 33.9 nM
GI50 (HCC1500, cell line HCC1500): 33.9 nM
GI50 (HCC1806, cell line HCC1806, censored GI50 values): 28.8 nM
GI50 (HCC1806, cell line HCC1806): 28.8 nM
GI50 (HCC1937, cell line HCC1937, censored GI50 values): 282 nM
GI50 (HCC1937, cell line HCC1937): 282 nM
GI50 (HCC1954, cell line HCC1954, censored GI50 values): 30.9 nM
GI50 (HCC1954, cell line HCC1954): 30.9 nM
GI50 (MCF7, cell line MCF7, censored GI50 values): 38 nM
GI50 (MCF7, cell line MCF7): 38 nM
GI50 (MDA-MB-134-VI, cell line MDAMB134VI, censored GI50 values): 43.7 nM
GI50 (MDA-MB-157, cell line MDAMB157, censored GI50 values): 31.6 nM
GI50 (MDA-MB-175-VII, cell line MDAMB175VII, censored GI50 values): 1700 nM
GI50 (MDA-MB-231, cell line MDAMB231, censored GI50 values): 31.6 nM
GI50 (MDA-MB-361, cell line MDAMB361, censored GI50 values): 33.9 nM
GI50 (MDA-MB-415, cell line MDAMB415, censored GI50 values): 75.9 nM
GI50 (MDA-MB-436, cell line MDAMB436, censored GI50 values): 38.9 nM
GI50 (MDA-MB-453, cell line MDAMB453, censored GI50 values): 42.7 nM
GI50 (MDA-MB-468, cell line MDAMB468, censored GI50 values): 19.1 nM
GI50 (SK-BR-3, cell line SKBR3, censored GI50 values): 33.9 nM
GI50 (SUM52PE, cell line SUM52PE, censored GI50 values): 28.8 nM
GI50 (SUM149PT, cell line SUM149PT, censored GI50 values): 33.1 nM
GI50 (SUM185PE, cell line SUM185PE, censored GI50 values): 110 nM
GI50 (SUM225CWN, cell line SUM225CWN, censored GI50 values): 105 nM
GI50 (SUM1315MO2, cell line SUM1315MO2, censored GI50 values): 40.7 nM
GI50 (SUM-159-PT, cell line SUM159PT, censored GI50 values): 47.9 nM
GI50 (T47D, cell line T47D, censored GI50 values): 83.2 nM
GI50 (UACC-893, cell line UACC893, censored GI50 values): 10.5 nM
GI50 (ZR-75-1, cell line ZR751, censored GI50 values): 89.1 nM
GI50 (ZR-75B, cell line ZR75B, censored GI50 values): 132 nM
GI50 (cell line 600MPE, censored GI50 values): 20.9 nM
GI50 (cell line 600MPE): 20.9 nM
GI50 (cell line HCC2185, censored GI50 values): 29.5 nM
GI50 (cell line HCC2185): 29.5 nM
GI50 (cell line HCC3153, censored GI50 values): 28.2 nM
GI50 (cell line HCC3153): 28.2 nM
GI50 (cell line LY2, censored GI50 values): 22.9 nM
GI50 (cell line LY2): 22.9 nM
